In brackets after ≈: the same amount, converted by molar mass.
Legend:
[1] = molecular target: T1, Hematopoietic prostaglandin D synthase (Rattus norvegicus, UniProt O35543); assay: Inhibition of H-PGDS in rat RBL cells assessed as reduction in A23187-induced PGD2 production pretreated for 30 mins followed by A23187 addition for 30 mins by RapidFire Mass spectrometry; format: cell-based
T1 sequence (O35543 whole entry): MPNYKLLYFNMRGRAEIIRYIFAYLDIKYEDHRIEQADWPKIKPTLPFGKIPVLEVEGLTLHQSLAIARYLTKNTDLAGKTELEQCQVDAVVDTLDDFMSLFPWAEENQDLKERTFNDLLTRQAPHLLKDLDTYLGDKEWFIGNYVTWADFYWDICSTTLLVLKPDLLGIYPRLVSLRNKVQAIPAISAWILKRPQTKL

[2] = molecular target: Albumin (Homo sapiens, UniProt P02768); assay: Protein binding in human serum albumin by HPLC analysis; format: ADME, cell-free; settings: read-out: PB (converted)
Chain of Albumin (P02768 whole entry): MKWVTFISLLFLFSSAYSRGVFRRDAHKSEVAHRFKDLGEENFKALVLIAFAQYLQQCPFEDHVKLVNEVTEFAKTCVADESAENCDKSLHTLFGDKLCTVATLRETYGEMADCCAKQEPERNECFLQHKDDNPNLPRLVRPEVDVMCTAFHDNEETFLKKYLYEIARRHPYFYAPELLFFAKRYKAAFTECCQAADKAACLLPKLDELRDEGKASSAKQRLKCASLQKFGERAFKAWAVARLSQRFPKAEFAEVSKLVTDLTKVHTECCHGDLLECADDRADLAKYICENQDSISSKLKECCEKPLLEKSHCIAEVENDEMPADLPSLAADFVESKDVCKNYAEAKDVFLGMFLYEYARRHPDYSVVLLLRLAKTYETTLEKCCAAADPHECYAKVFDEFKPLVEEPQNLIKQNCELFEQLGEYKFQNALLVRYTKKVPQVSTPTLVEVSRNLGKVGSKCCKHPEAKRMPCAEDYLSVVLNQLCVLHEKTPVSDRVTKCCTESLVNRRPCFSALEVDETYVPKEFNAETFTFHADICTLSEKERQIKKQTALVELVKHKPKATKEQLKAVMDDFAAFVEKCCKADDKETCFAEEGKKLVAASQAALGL

[3] = Dose normalized AUC in mouse at 3 mg/kg, po; format: ADME, organism-based; set-up: unit not given here; settings: in vivo
[4] = molecular target: Hematopoietic prostaglandin D synthase (Homo sapiens, UniProt O60760); assay: Inhibition of human H-PGDS expressed in Escherichia coli BL21 DE3 cells assessed as reduction in PGD2 production using PGH2 as substrate by RapidFire High Throughput Mass spectrometry
Chain of Hematopoietic prostaglandin D synthase (Homo sapiens, UniProt O60760) (O60760 whole entry): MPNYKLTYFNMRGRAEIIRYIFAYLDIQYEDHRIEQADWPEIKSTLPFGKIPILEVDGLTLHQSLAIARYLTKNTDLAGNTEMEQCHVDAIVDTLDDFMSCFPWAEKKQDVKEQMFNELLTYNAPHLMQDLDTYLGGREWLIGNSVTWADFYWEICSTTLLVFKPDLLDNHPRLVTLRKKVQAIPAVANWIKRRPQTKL

[5] = Apparent permeability, Papp of the compound at pH 7.4 incubated for 3 hrs by AMP based liquid chromatography; format: ADME; settings: not told
[6] = Solubility of the compound in FaSSIF at pH 6.5 measured after 4 hrs by HPLC-UV analysis; format: ADME
[7] = Half life in mouse S9 fraction pretreated for 5 mins followed by incubation with NADP for 30 secs and measured upto 45 mins by LC-MS/MS analysis; format: ADME, subcellular; settings: time 3030 sec
[8] = Dissociation constant, pKa of the compound by UV spectroscopy or potentiometric analysis; format: physicochemical
[9] = Half life in mouse liver microsomes pretreated for 5 mins followed by incubation with NADP for 30 secs and measured upto 45 mins by LC-MS/MS analysis; format: ADME, Microsome; settings: time 3030 sec
[10] = Ratio of drug level in brain to blood in mouse at 1 mg/kg, iv; format: ADME, organism-based; settings: read-out: BBR
[11] = Volume of distribution at steady state in mouse at 1 mg/kg, iv; format: ADME, organism-based; settings: in vivo, read-out: Vdss
[12] = Oral bioavailability in mouse at 3 mg/kg; format: ADME, organism-based; settings: in vivo
[13] = Clearance in mouse at 1 mg/kg, iv; format: ADME, organism-based; settings: in vivo
[14] = Terminal half life in mouse at 1 mg/kg, iv; format: ADME, organism-based; settings: in vivo
[15] = Toxicity in chronic eccentric muscle damage C57BL/6N mouse model assessed as adverse effects at <=6 mg/kg, po administered for 60 days; format: organism-based; settings: in vivo, 1440 h, time 60 day
[16] = Toxicity in chronic eccentric muscle damage C57BL/6N mouse model assessed as seizure-like activity at >=10 mg/kg, po and measured after 4 days; format: organism-based; settings: in vivo, 96 h, time 4 day

Row | EC50 [1] [nM] | fraction unbound [2] | AUC/dose [3] | IC50 [4] [nM] | Papp at 3 h [5] [×10⁻⁶ cm/s] | solubility at 4 h [6] [µg/mL] | half-life [7] [h] | pKa [8] | half-life [9] [h] | half-life ([14]; read-out: beta t1/2 (converted)) [h] | Compound | Kp [10] | Vd [11] [L/kg] | bioavailability [12] [%] | clearance [13] [mL/min/kg] | Activity [15] | Activity [16] | beta t1/2 ([14]; iv, 1 mg/kg) [h]
1 | 110 | 0.41 | 250 | 12 | < 1 | 400 (≈ 1280 µM) | > 3 |  |  |  | O=C(N[C@H]1CCNC1=O)c1cnc2cc(N3CCC3)ncc2c1 |  |  |  |  |  |  | 
2 | 150 | 0.27 | 64.9 | 30 |  | 24 (≈ 69.9 µM) |  | 2.58 | > 3 |  | COc1ccc2cc(C(=O)N[C@H]3CC[C@H](C(C)(C)O)CC3)cnc2n1 |  |  |  |  |  |  | 
3 | 450 | 0.48 | 46.9 | 56 | 3.8 | 460 (≈ 1470 µM) | > 3 |  |  |  | C[C@]1(O)C[C@@H](NC(=O)c2cnc3cc(N4CCC4)ncc3c2)C1 |  |  |  |  |  |  | 
4 | 170 | 0.27 | 19.3 | 12 |  | 13 (≈ 33.6 µM) | > 3 |  |  |  | CC(C)(O)[C@H]1CC[C@H](NC(=O)c2cnc3cc(N4CC(F)C4)ncc3c2)CC1 |  |  |  |  |  |  | 
5 | 14 | 0.22 | 73.7 | 4.4 | 2.5 | 270 (≈ 706 µM) | > 3 |  |  |  | C[C@H]1CCN1c1ccc2cc(C(=O)N[C@H]3CC[C@H](C(C)(C)O)CC3)cnc2n1 |  |  |  |  |  |  | 
6 | 190 | 0.33 | 104 | 45 | 6.1 | 85 (≈ 248 µM) |  | < 2 | > 3 |  | COc1cc2ncc(C(=O)N[C@H]3CC[C@H](C(C)(C)O)CC3)cc2cn1 |  |  |  |  |  |  | 
7 | 75 | 0.2 | 72.5 | 5.3 | 2.3 | 3 (≈ 8.14 µM) | > 3 |  |  |  | CC(C)(O)[C@H]1CC[C@H](NC(=O)c2cnc3nc(N4CCC4)ccc3c2)CC1 |  |  |  |  |  |  | 
8 | 94 | 0.16 | 1040 | 14 | 16.5 | 27 (≈ 76.4 µM) | > 3 |  |  | 1.1 | CC(C)(O)[C@H]1CC[C@H](NC(=O)c2cnc3cc(C4CC4)ncc3c2)CC1 | 0.17 | 1.6 | 130 | 22 |  |  | 
9 | 24 | 0.21 | 41 | 3.9 | 7.8 | 11 (≈ 29.9 µM) | 2.68 |  |  |  | CC(C)(O)[C@H]1CC[C@H](NC(=O)c2cnc3cc(N4CCC4)ncc3c2)CC1 |  |  |  |  |  |  | 

Row | Compound | EC50 [1] [nM] | fraction unbound [2] | AUC/dose [3] | IC50 [4] [nM] | Papp at 3 h [5] [×10⁻⁶ cm/s] | solubility at 4 h [6] [µg/mL] | half-life [7] [h] | pKa [8] | half-life [9] [h] | half-life ([14]; read-out: beta t1/2 (converted)) [h] | Kp [10] | Vd [11] [L/kg] | bioavailability [12] [%] | clearance [13] [mL/min/kg] | Activity [15] | Activity [16] | beta t1/2 ([14]; iv, 1 mg/kg) [h]
10 | CC(C)(O)[C@H]1CC[C@H](NC(=O)c2cnc3cc(OC(F)F)ccc3c2)CC1 | 160 | 0.12 |  |  |  | 70 (≈ 185 µM) | > 3 | 2.43 |  |  | 0.59 | 1.7 | 61 | 5.6 | Non-Toxic | Toxic | 3.8
